Assay results as given in patent publication US11834463B2, “High affinity macrocyclic FKB51-inhibitors for treatment of psychiatric disorders” (priority 2020, dated 2023).
“And” between values parts separate entries of the source, which are not always exact repeats. Equal values may be shown once. Read-outs that look alike come from different tables or passages of the source.

Conditions: 1.0 mM

SMILES | ring closure, yield after HPLC (from C=CCOCCCOc1cc([C@@H](C(=O)N2CCCC[C@@H]2C(=O)O[C@@H](CCc2ccc(OC)c(OC)c2)c2cccc(OCC=C)c2)C2CCCCC2)cc(OC)c1OC, rcm bond, 23-membered ring, Grubbs II (0.1 equiv)/1,4-benzoquinone, DCM) | ring closure, yield after HPLC (from COc1ccc(CC[C@H](OC(=O)[C@H]2CCCCN2C(=O)[C@H](c2cc(OC)c(OC)c(OCCI)c2)C2CCCCC2)c2cccc(O)c2)cc1OC, ether bond, 17-membered ring, K2CO3 (2 equiv), MeCN) [%]
COc1ccc(CC[C@@H]2OC(=O)[C@H]3CCCCN3C(=O)[C@@H](C3CCCCC3)c3cc(OC)c(OC)c(c3)OCCCOCC=CCOc3cccc2c3)cc1OC | 58% and 33% | –
COc1ccc(CC[C@@H]2OC(=O)[C@H]3CCCCN3C(=O)[C@@H](C3CCCCC3)c3cc(OC)c(OC)c(c3)OCCOc3cccc2c3)cc1OC | – | 42
